In patent US12427183B2, “Methods of treating cancer, infectious disease, and autoimmune disease using chemokines” (New York Society for the Relief of the Ruptured and …, priority 2016, dated 2025):

How the values were obtained:
[1] = test system: TLR9-mediated activation of human B cells; assay: TLR9-mediated activation of human B cells (CpG with or without chemokines); assay type: cell-based
Experimental: PBMCs were prepared using Ficoll-Paque density gradient from fresh blood under internal Institutional Review Board-approved protocols. pDCs were isolated as previously described (Guiducci et al. 2008) using either using negative depletion (Miltenyi Biotech) or following cell sorting using a BD IFNLUX cell sorter. As part of the gating strategy, neutrophils were excluded by FSC/SSC and cells positive for CD14 (CD3 and CD19 as well) were first excluded in order to prevent the contamination by TLR8 positive cells and then positively gated on HLA-DR, CD123 and BDCA4 to purify the pDCs. All BDCA4+ cells also express BDCA2 (results not shown). As a result, pure pDCs were obtained and no markers for neutrophils (CD66) or myeloid cells were found by PCR. B cells were FACS sorted as CD19+ and monocytes as CD14+ cells. PBMCs were depleted of pDCs using BDCA4 beads from Miltenyi. pDCs were cultured at 10,000-30,000 cells per well in a 96-round bottom plate and incubated at 37° C., 5% CO2 and 95% humidity. After 24 hours of culture, the supernatant was collected for ELISA or Mutiplex cytokine assays. In some culture conditions, cells were cultured with the PI3Kδ inhibitor, CAL-101 (Selleck chemicals) for 24 hours. The RNA-based TLR8 agonist, ORN8-L previously described (Guidacci et al. 2013) was synthetized by Chemgenes Corporation. For the TLR8 activation assay, pDCs were incubated in complete media alone, 200 μg/ml ORN8-L in complete media or 200 μg/ml ORN8-L+ 10 μg/ml CXCL4 (R&D systems).
IL-6, TNF, and IL-10 gene levels were measured at 6 hours post culture using PCR. The secretion of cytokines/chemokines in the supernatants was quantified using Luminex. CD83, CD80, CD86 and CD69 expression was measured by flow cytometry at 24 hour post culture.
Human B cells were purified and cultured for 6 hours or 24 hours either with medium only, with CpG-C (at 0.15 μM) alone or with a combination of CpG-C and CXCL4 (at 10 μg/ml). IL-6 gene levels was measured at 6 hour post culture by PCR and CD83, CD80, CD86 and CD69 expression was measured by flow cytometry at 24 hour post culture.
Purified B cells from HDs were cultured in media alone (control), with either a CpG TLR9 agonist (0.15 μM) or with CpG and either CXCL4, CXCL10, CXCL9, CXCL4, CXCL7 or CXCL12 (all at 10 μg/ml). IL-6 was quantified in the supernatants by ELISA.
Purified B cells from HDs were cultured in media alone (control), with either a CpG TLR9 agonist (0.25 μM) or with CpG and CXCL4 or CXCL10 (10 μg/ml) alone or in the presence of the CXCR3 inhibitor AMG487 at 0, 0.1, 1 or 10 μM for 6 hours or 24 hours. IL-6 was quantified by ELISA at 24 hours and IL-6 and TNF gene expression levels were quantified by q-PCR at 6 hours and CD83, CD80, CD86 and CD69 expression was measured by flow cytometry at 24 hours post culture.

[2] = test system: PBMCs and pDC-depleted PBMCs; assay: IFN-α production in PBMCs and pDC-depleted PBMCs cultured with CpG and chemokines (ELISA); assay type: cell-based, human; conditions: CpG 0.25 μM + chemokine 10 μg/ml
Experimental: PBMCs were prepared using Ficoll-Paque density gradient (GE Healthcare) as previously described (Guiducci et al., 2008).
pDCs were isolated from PBMCs by positive selection using BDCA4-MicroBead Kit as previously described (Guiducci et al., 2008). pDC-depleted PBMC were prepared by removing BDCA4-positive cells from PBMC using microbeads.
5×10^5 PBMCs or pDC-depleted PBMCs were cultured in 96 wells plate and stimulated with 0.25 μM CpG DNA with or without 10 μg/ml CXCL4, CXCL10, CXCL12 or CCL5. Freshly isolated pDCs were resuspended at 5×10^4 cells/100 μl RPMI 1640 medium (Gibco) and stimulated with the 0.25 μM CpG with/without 10 μg/ml indicated chemokines. The supernatant was harvested after 18 h and IFN-α was measured by ELISA.
As shown above, CXCL4 can increase IFN-α production by TLR9-activated pDCs. Thus it was tested whether other chemokines may impact TLR9 signaling in pDCs. Purified pDCs were left unstimulated (Unstim.) or cultured with CpG (0.25 μM) alone or with the indicated chemokines at 10 μg/ml. IFN-α secretion was quantified by ELISA. Strikingly, it was observed that a set of chemokines, including CXCL4, CXL10, CXCL12 and CCL5, were able to superinduce TLR9-induced response by pDCs (FIG. 18A), while they had no effect when used alone (results not shown). […] This also raised questions as to the specificity and mechanism for this effect. First, as other DNA sensors have been described to induce IFN-α in immune cells (Barrat et al., 2016), it was tested to see if these chemokines altered the specificity of the CpGs for TLR9 and if the IFN-α response was restricted to pDCs. Total PBMCs or PBMCs where pDCs were depleted (PBMC-ΔpDCs) were incubated with CpGs and either CXCL4, CXCL10, CXCL12 or CCL5 and IFN-α production was quantified by ELISA.

[3] = CpG-B 0.15 μM + CXCL4 10 μg/ml, 6 hours

In the case of “CXCL4: small chemokine of the CXC family, 70-amino acid protein released from alpha-granules of activated platelets”, the “effect of inhibition of CXCR3 on the chemokine's inhibition of TLR9 in B cells” value ([1]; CXCR3 inhibitor AMG487 0.1, 1 or 10 μM, CpG 0.25 μM, chemokine 10 μg/ml, 6 or 24 hours) is reported as “no effect”, the “activation of B cells via TLR9 as shown by the production of IL-6” value ([1]; CpG 0.15 μM, chemokine 10 μg/ml, ELISA) is reported as “inhibited” and the “expression of IL-6 in B cells (PCR and protein)” value [1, 3] is reported as “negatively regulated”. The “expression of IL-10 in B cells (PCR and protein)” value [1, 3] was “negatively regulated”, the “expression of TNF in B cells (PCR and protein)” value [1, 3] was “negatively regulated” and the “TLR9 activation of B cells (IL-6 gene; CD83, CD80, CD86, CD69)” value ([1]; CpG-C 0.15 μM + CXCL4 10 μg/ml, 6 or 24 hours) was “negatively regulated”. For the same substance, the “IFN-α production in absence of the pDCs (PBMC-ΔpDCs versus total PBMCs)” value [2] was “dramatic decrease”.
